We go through 3 compounds from patent publication US4710492A, “3'-azido-2',3'-dideoxy-5-halouridine and its use in treating patients infected with retroviruses” (Yale University, priority 1986, dated 1987).

Read-outs that look alike come from different tables or passages of the source.

The subject of assay [1] is HTLV-III/LAV/AAV. Nature of the assay: Antiviral activity against HTLV-III/LAV/AAV. Type of assay: cell-based. Particulars: Human immunodeficiency virus 1; read-out: ID50 HTLV-III/LAV/AAV.
Assay [2] deals with Moloney Murine Leukemia Virus. As to the kind of experiment: Antiviral screening against Moloney Murine Leukemia Virus (MuLV) by XC-Assay. Particulars: read-out: ID50 (Moloney Murine Leukemia Virus). The format is cell-based. The source says:
Biological Activity Assay Procedure for Antiviral Screening Against Moloney Murine Leukemia Virus (MuLV) by XC-Assay
The XC assay system is an indirect method for quantitation of murine-leukemia virus (MuLV) originally described by V. Klement et al, Proc. Natl. Acad. Sci., 63, 753, (1969) and modified by W. Rowe et al, Virology, 42, 1136, (1970). This test is based on the development of syncytial changes in the XC cell line when it is co-cultivated with mouse fibroblast cells (SC-1 cells) productively infected with MuLV. The XC cell line was derived from a rat tumor induced by the prague strain of Rouse Sarcoma Virus (RSV) (J. Svoboda et al, Folia Biol., 9, 77, (1963)).
1E5 SC-1 cells were seeded, in Earls Minimum Essential Medium (EMEM)-10% Fetal Bovine Serum (FBS), onto 60 mm petri dishes. The following day, the cells were inoculated with 0.5 ml of a virus dilution containing 25 μg/ml of DEAE-dextran. The dishes were maintained for 1 hour at 37° C. in a humidified 5% CO2 incubator. The virus inoculum was then removed and replaced with 5 ml of medium containing appropriate concentration of the test compound (two dishes/concentration). Medium containing 5% FBS was added to the virus control dishes. The medium (with or without the test compound) was changed at 48 hours.
Five days after virus inoculation, the culture fluid was decanted and the cells were irradiated with a GE germicidal bulb for 30 seconds (1500-1800 ergs UV-light). Cultures were immediately overlaid with 2E5 XC cells in 5 ml of EMEM-10% FBS/dish. The medium was changed at 2 day intervals. Four days after XC cell addition, cultures were simultaneously fixed and stained with GEIMSA for 10 to 15 minutes.
Plaques were counted using an inverted microscopy as holes in the cell sheet containing syncytial cells, or as focal masses of multinucleated giant cells.
Calculation of % Inhibition/Concentration: [formula] ID50: Accumulative % Inhibition using Reed-Muench Method

Assay [3] deals with HTLV III/LAV. The settings on record: in vitro; Mitsuya et al. 1985; cited from earlier work.
Setting [4] is: SC1, XC-assay, SC-1 mouse fibroblast cells co-cultivated with XC cells, Reed-Muench Method.

Take `[N-]=[N+]=N[C@H]1C[C@H](n2cc(Br)c(=O)[nH]c2=O)O[C@@H]1CO` [3'-N3 --BUdR, 3'-azido-2',3'-dideoxy-5-bromouridine]: the IC50 in assay [1] was determined as 2300 nM; in assay [2] (setting [4]) it was 1500 nM.
Consider `[N-]=[N+]=N[C@H]1C[C@H](n2cc(I)c(=O)[nH]c2=O)O[C@@H]1CO` [3'-N3 --IUdR, 3'-azido-2',3'-dideoxy-5-iodouridine], for which the IC50 in assay [2] (setting [4]) is 3000 nM.
`Cc1cn([C@H]2C[C@H](N=[N+]=[N-])[C@@H](CO)O2)c(=O)[nH]c1=O` [3'-azido-3'-deoxythymidine]: in assay [3], the “HTLV III/LAV replication” value is “inhibit HTLV III/LAV replication” and the “cytopathic effects of HTLV III/LAV” value is on record as “block the cytopathic effects”. For the same compound, in assay [1], the IC50 was found to be 230 nM. Moreover, the IC50 in assay [2] (SC1, Fibroblast) was 23 nM.
